{
  "source": "patent US6914045B2",
  "about": "“Glycopeptide antibiotics” (Wyeth Holdings Corporation, priority 2001, dated 2005)",
  "test_in_all_cases": "in vitro antibacterial evaluation, MIC by broth dilution",
  "type_in_all_cases": "cell-based",
  "key": {"Staphylococcus sp.": {"tested_on": "Staphylococcus sp.", "conditions": "broth dilution, 18 hours at 35° C.", "method_in_brief": "(§1)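 MIC = lowest antibiotic concentration preventing visible growth; inoculum 5×10^5 CFU/mL; drug range 64-0.06 μg/mL; Muller-Hinton II […]; NCCLS M7-A2 guidance.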"}, "Streptococcus sp.": {"tested_on": "Streptococcus sp.", "conditions": "broth dilution, 18 hours at 35° C.", "method_in_brief": "as §1"}, "Escherichia coli": {"tested_on": "Escherichia coli", "conditions": "18 hours at 35° C.", "method_in_brief": "as §1"}, "Enterococcus sp.": {"tested_on": "Enterococcus sp.", "conditions": "broth dilution, 18 hours at 35° C.", "method_in_brief": "as §1"}},
  "data": [
    {"smiles": "CC(c1ccccc1)C1NC(=O)CNC(=O)C(CO)NC(=O)C(C(O)C2CNC(=N)N2C2OC(CO)C(O)C(O)C2O)NC(=O)C(C(O)C2CNC(=N)N2)NC(=O)C(Cc2ccc(OC3OC(CO)C(OC4OC5COC(c6cccc(O)c6)OC5C(O)C4O)C(O)C3O)cc2)NC1=O", "note": "(stereo not drawn) [Example 136, Cyclo[glycyl-β-methylphenylalanyl-O-[4-O-[4,6-O-(3-hydroxybenzylidene)hexopyranosyl]-hexopyranosyl]tyrosyl-3-(2-iminoimidazolidin-4-yl)seryl-3-(3-hexopyranosyl-2-iminoimidazolidin-4-yl)serylseryl]]", "values": [
      {"measurement": "MIC Staphylococcus aureus (ATCC 29213)", "setting": "Staphylococcus sp.", "result": 16, "unit": "µg/mL"},
      {"measurement": "MIC Staphylococcus aureus (GC 1131)", "setting": "Staphylococcus sp.", "result": 16, "unit": "µg/mL"},
      {"measurement": "MIC Staphylococcus aureus (GC 3051)", "setting": "Staphylococcus sp.", "result": 16, "unit": "µg/mL"},
      {"measurement": "MIC Staphylococcus aureus (GC 3053)", "setting": "Staphylococcus sp.", "result": 32, "unit": "µg/mL"},
      {"measurement": "MIC Staphylococcus aureus (GC 4541)", "setting": "Staphylococcus sp.", "result": 8, "unit": "µg/mL"},
      {"measurement": "MIC Staphylococcus aureus (GC 4542)", "setting": "Staphylococcus sp.", "result": 16, "unit": "µg/mL"},
      {"measurement": "MIC Staphylococcus aureus (GC 4544)", "setting": "Staphylococcus sp.", "result": 16, "unit": "µg/mL"},
      {"measurement": "MIC Staphylococcus aureus (GC 4545)", "setting": "Staphylococcus sp.", "result": 16, "unit": "µg/mL"},
      {"measurement": "MIC Staphylococcus aureus (GC 1131)", "setting": "Staphylococcus sp.; inoculum 5×10^5 CFU/mL, strain GC 1131", "result": 16, "unit": "µg/mL"},
      {"measurement": "MIC Staphylococcus aureus (ATCC 29213)", "setting": "Staphylococcus sp.; strain ATCC 29213", "result": 16, "unit": "µg/mL"},
      {"measurement": "MIC Staphylococcus aureus (GC 3051)", "setting": "Staphylococcus sp.; strain GC 3051", "result": 16, "unit": "µg/mL"},
      {"measurement": "MIC Staphylococcus aureus (GC 3053)", "setting": "Staphylococcus sp.; strain GC 3053", "result": 32, "unit": "µg/mL"},
      {"measurement": "MIC Staphylococcus aureus (GC 4541)", "setting": "Staphylococcus sp.; strain GC 4541", "result": 8, "unit": "µg/mL"},
      {"measurement": "MIC Staphylococcus aureus (GC 4542)", "setting": "Staphylococcus sp.; strain GC 4542", "result": 16, "unit": "µg/mL"},
      {"measurement": "MIC Staphylococcus aureus-SMITH (GC 4543)", "setting": "Staphylococcus sp.; strain GC 4543", "result": 16, "unit": "µg/mL"},
      {"measurement": "MIC Staphylococcus aureus (GC 4544)", "setting": "Staphylococcus sp.; strain GC 4544", "result": 16, "unit": "µg/mL"},
      {"measurement": "MIC Staphylococcus aureus (GC 4545)", "setting": "Staphylococcus sp.; strain GC 4545", "result": 16, "unit": "µg/mL"},
      {"measurement": "MIC Staphylococcus haemolyticus (GC 4546)", "setting": "Staphylococcus sp.; strain GC 4546", "result": 16, "unit": "µg/mL"},
      {"measurement": "MIC Coagulase Negative Staphylococcus (GC 4547)", "setting": "Staphylococcus sp.; strain GC 4547", "result": 8, "unit": "µg/mL"},
      {"measurement": "MIC Coagulase Negative Staphylococcus (GC 4548)", "setting": "Staphylococcus sp.; strain GC 4548", "result": 8, "unit": "µg/mL"},
      {"measurement": "MIC Coagulase Negative Staphylococcus (GC 4549)", "setting": "Staphylococcus sp.; strain GC 4549", "result": 4, "unit": "µg/mL"},
      {"measurement": "MIC Coagulase Negative Staphylococcus (GC 4551)", "setting": "Staphylococcus sp.; strain GC 4551", "result": 32, "unit": "µg/mL"},
      {"measurement": "MIC Coagulase Negative Staphylococcus (GC 6257)", "setting": "Staphylococcus sp.; strain GC 6257", "result": 4, "unit": "µg/mL"},
      {"measurement": "MIC Staphylococcus aureus-SMITH (GC 4543)", "setting": "Staphylococcus sp.; strain SMITH GC 4543", "result": 16, "unit": "µg/mL"},
      {"measurement": "MIC Streptococcus agalactiae (GC 4564)", "setting": "Streptococcus sp.; Streptococcus agalactiae (GC 4564)", "result": 8, "unit": "µg/mL"},
      {"measurement": "MIC Streptococcus pneumoniae (ATCC 6301)", "setting": "Streptococcus sp.; Streptococcus pneumoniae (ATCC 6301)", "result": 2, "unit": "µg/mL"},
      {"measurement": "MIC Streptococcus pneumoniae (GC 1894)", "setting": "Streptococcus sp.; Streptococcus pneumoniae (GC 1894)", "result": 1, "unit": "µg/mL"},
      {"measurement": "MIC Streptococcus pneumoniae (GC 4565)", "setting": "Streptococcus sp.; Streptococcus pneumoniae (GC 4565)", "result": 4, "unit": "µg/mL"},
      {"measurement": "MIC Streptococcus pyogenes (GC 4563)", "setting": "Streptococcus sp.; Streptococcus pyogenes (GC 4563)", "result": 8, "unit": "µg/mL"},
      {"measurement": "MIC Streptococcus pneumoniae (ATCC 6301)", "setting": "Streptococcus sp.; strain ATCC 6301", "result": 2, "unit": "µg/mL"},
      {"measurement": "MIC Streptococcus pneumoniae (GC 1894)", "setting": "Streptococcus sp.; strain GC 1894", "result": 1, "unit": "µg/mL"},
      {"measurement": "MIC Streptococcus pyogenes (GC 4563)", "setting": "Streptococcus sp.; strain GC 4563", "result": 8, "unit": "µg/mL"},
      {"measurement": "MIC Streptococcus agalactiae (GC 4564)", "setting": "Streptococcus sp.; strain GC 4564", "result": 8, "unit": "µg/mL"},
      {"measurement": "MIC Streptococcus pneumoniae (GC 4565)", "setting": "Streptococcus sp.; strain GC 4565", "result": 4, "unit": "µg/mL"},
      {"measurement": "MIC Escherichia coli (ATCC 25922)", "setting": "Escherichia coli; strain ATCC 25922", "result": ">64", "unit": "µg/mL"},
      {"measurement": "MIC Escherichia coli (GC 4559)", "setting": "Escherichia coli; strain GC 4559", "result": ">64", "unit": "µg/mL"},
      {"measurement": "MIC Escherichia coli (GC 4560)", "setting": "Escherichia coli; strain GC 4560", "result": 4, "unit": "µg/mL"},
      {"measurement": "MIC Enterococcus avium (GC 4558)", "setting": "Enterococcus sp.; Enterococcus avium (GC 4558)", "result": 64, "unit": "µg/mL"},
      {"measurement": "MIC Enterococcus faecalis (ATCC 29212)", "setting": "Enterococcus sp.; Enterococcus faecalis (ATCC 29212)", "result": ">64", "unit": "µg/mL"},
      {"measurement": "MIC Enterococcus faecalis (GC 2242)", "setting": "Enterococcus sp.; Enterococcus faecalis (GC 2242)", "result": 64, "unit": "µg/mL"},
      {"measurement": "MIC Enterococcus faecalis (GC 2691)", "setting": "Enterococcus sp.; Enterococcus faecalis (GC 2691)", "result": ">64", "unit": "µg/mL"},
      {"measurement": "MIC Enterococcus faecalis (GC 3059)", "setting": "Enterococcus sp.; Enterococcus faecalis (GC 3059)", "result": ">64", "unit": "µg/mL"},
      {"measurement": "MIC Enterococcus faecalis (GC 4552)", "setting": "Enterococcus sp.; Enterococcus faecalis (GC 4552)", "result": ">64", "unit": "µg/mL"},
      {"measurement": "MIC Enterococcus faecalis (GC 4553)", "setting": "Enterococcus sp.; Enterococcus faecalis (GC 4553)", "result": ">64", "unit": "µg/mL"},
      {"measurement": "MIC Enterococcus faecalis (GC 4554)", "setting": "Enterococcus sp.; Enterococcus faecalis (GC 4554)", "result": ">64", "unit": "µg/mL"},
      {"measurement": "MIC Enterococcus faecalis (GC 6189)", "setting": "Enterococcus sp.; Enterococcus faecalis (GC 6189)", "result": 64, "unit": "µg/mL"},
      {"measurement": "MIC Enterococcus faecium (GC 2243)", "setting": "Enterococcus sp.; Enterococcus faecium (GC 2243)", "result": ">64", "unit": "µg/mL"},
      {"measurement": "MIC Enterococcus faecium (GC 4556)", "setting": "Enterococcus sp.; Enterococcus faecium (GC 4556)", "result": 64, "unit": "µg/mL"},
      {"measurement": "MIC Enterococcus faecium (GC 4557)", "setting": "Enterococcus sp.; Enterococcus faecium (GC 4557)", "result": 8, "unit": "µg/mL"},
      {"measurement": "MIC Enterococcus faecalis (ATCC 29212)", "setting": "Enterococcus sp.; strain ATCC 29212", "result": ">64", "unit": "µg/mL"},
      {"measurement": "MIC Enterococcus faecalis (GC 2242)", "setting": "Enterococcus sp.; strain GC 2242", "result": 64, "unit": "µg/mL"},
      {"measurement": "MIC Enterococcus faecium (GC 2243)", "setting": "Enterococcus sp.; strain GC 2243", "result": ">64", "unit": "µg/mL"},
      {"measurement": "MIC Enterococcus faecalis (GC 2691)", "setting": "Enterococcus sp.; strain GC 2691", "result": ">64", "unit": "µg/mL"},
      {"measurement": "MIC Enterococcus faecalis (GC 3059)", "setting": "Enterococcus sp.; strain GC 3059", "result": ">64", "unit": "µg/mL"},
      {"measurement": "MIC Enterococcus faecalis (GC 4552)", "setting": "Enterococcus sp.; strain GC 4552", "result": ">64", "unit": "µg/mL"},
      {"measurement": "MIC Enterococcus faecalis (GC 4553)", "setting": "Enterococcus sp.; strain GC 4553", "result": ">64", "unit": "µg/mL"},
      {"measurement": "MIC Enterococcus faecalis (GC 4554)", "setting": "Enterococcus sp.; strain GC 4554", "result": ">64", "unit": "µg/mL"},
      {"measurement": "MIC Enterococcus faecium (GC 4556)", "setting": "Enterococcus sp.; strain GC 4556", "result": 64, "unit": "µg/mL"},
      {"measurement": "MIC Enterococcus faecium (GC 4557)", "setting": "Enterococcus sp.; strain GC 4557", "result": 8, "unit": "µg/mL"},
      {"measurement": "MIC Enterococcus avium (GC 4558)", "setting": "Enterococcus sp.; strain GC 4558", "result": 64, "unit": "µg/mL"},
      {"measurement": "MIC Enterococcus faecalis (GC 6189)", "setting": "Enterococcus sp.; strain GC 6189", "result": 64, "unit": "µg/mL"}
    ]}
  ]
}
